This passage reports IC50 results from PubChem BioAssay AID489033 (Sanford-Burnham Center for Chemical Genomics, 2010).

pIC50: −log10 of the molar value. Activity calls are given as the source filed them. The rule behind the calls is not given here. Where only a bound is given, the exact number is not on record here.

The test system of this assay is 697B B-cell line, NF-kB luciferase reporter luminescence. Put plainly: NF-kB reporter inhibition in B cells, dose response, selectivity assay for T-cell antigen receptor NF-kB inhibitors, 697B cells, luminescence (AID 489033).
For the compound `COc1cc(-c2noc(C)c2-c2ccc3[nH]ccc3c2)cc(OC)c1OC`, the IC50 (as a rule, the concentration needed to halve the response being measured) was > 80 µM (inactive).
On to `COc1ccc(-n2nnnc2-c2ccccc2)cc1`, for which the IC50 was > 80 µM (inactive).
As to `CCOC(=O)c1ccc(Nc2nc(N)c3cc(OC)c(OC)cc3n2)cc1`, the IC50 was > 80 µM (inactive).
In the case of `CC[C@@]1(O)C(=O)OCc2c1cc1n(c2=O)Cc2cc3c(N)cccc3nc2-1`, the pIC50 (usually −log10 of the IC50, conventionally taken in molar units) was 6.21.
Consider `CCCC(=O)NC(c1ccc(OC)cc1)c1ccc2cccnc2c1O` (centres undefined), for which the IC50 was > 80 µM (inactive).
`CC(C)n1c(CN(C)Cc2ccccc2)nc2c1c(=O)n(C)c(=O)n2C`: the IC50 is 43.7 µM (inactive).
Take `CCOc1cccc(/C=N/Nc2ccc(S(=O)(=O)N(CC)CC)cn2)c1O`: the pIC50 was 4.95.
Regarding `Brc1ccc2c(c1)C(C1=NCCN1)c1ccccc1CS2` (centres undefined), the IC50 was > 80 µM (inactive).
Turning to `CC(=O)Nc1ccc(S(=O)(=O)N2c3ccccc3C(C)=CC2(C)C)cc1`, the IC50 is > 80 µM (inactive).
As for `COc1cc(C(=O)N/N=C/c2cc([N+](=O)[O-])cs2)cc(OC)c1OC`, the pIC50 is 5.25.
`CCOc1ccc(S(=O)(=O)N2c3ccccc3CC2C)cc1` (centres undefined): the IC50 was > 80 µM (inactive).
As to `COc1cc(C2=NOC(C(=O)NCc3ccc(F)cc3)C2)cc(OC)c1OC` (centres undefined), the IC50 is > 80 µM (inactive).
As for `CCC/C(O)=C1\C(=O)CC(C)(C)CC1=Nc1ccc(OC)cc1OC`, the IC50 was > 80 µM (inactive).
For `COc1ccc(C2=NOC(C(=O)NCc3cccs3)C2)cc1OC` (centres undefined), the IC50 is > 80 µM (inactive).
For `CCCCCN1C=CC(=C2C(=O)c3ccccc3C2=O)C=C1`, the negative-log IC50 (pIC50) is 6.42.
`CCn1c(C)cc(C(=O)CN2C(=O)c3ccccc3S2(=O)=O)c1C`: the pIC50 was 6.13.
In the case of `Cc1ccc(Oc2ccc(OCC(=O)Nc3ccncc3)cc2)cc1`, the IC50 was 58.6 µM (inactive).
For `O=C(Nc1ccc(C(F)(F)F)cc1)c1cccn(Cc2ccc3c(c2)OC(F)(F)O3)c1=O`, the IC50 is > 80 µM (inactive).
For `COc1ccccc1C(=O)N(CCC1CCCN1C)c1nc2ccccc2s1` (centres undefined), the IC50 was > 80 µM (inactive).
On to `CC1=CC(C)(C)N(S(=O)(=O)c2ccc(C)cc2)c2cc(C)ccc21`, for which the IC50 is > 80 µM (inactive).
As for `COc1ccccc1-c1nnc2n1N=C(c1ccc(O)c(O)c1)CS2`, the IC50 was 77.9 µM (inactive).
For `O=C(Sc1cccc2cccnc12)c1ccccc1Br`, the pIC50 is 5.44.
Consider `COc1cc2c(cc1O)CC[C@@H]1[C@@H]2CC[C@]2(C)[C@@H](O)CC[C@@H]12`, for which the IC50 was > 80 µM (inactive).
Same read-out and setting: for `O=S(=O)(Nc1ccc(F)cc1Cl)c1ccc(-c2cnc(C3CC3)o2)cc1` the value was 73.4 µM (inactive); for `COc1ccc(CCN2C(=O)C3C4C=CC(C3C2=O)C2C(=O)N(CCc3ccc(OC)c(OC)c3)C(=O)C42)cc1OC` (centres undefined), > 80 µM (inactive).
On the same count and under the same terms, for `Cc1ccc(C(=O)c2cc([N+](=O)[O-])ccc2N2CCCCC2)cc1` the value was > 80 µM (inactive).
On to `COC(=O)[C@]12OC[C@]34C([C@@H](O)[C@@H]1O)[C@]1(C)CC(=O)C(O)=C(C)[C@@H]1C[C@H]3OC(=O)[C@H](O)[C@@H]24` (some centres undefined), for which the pIC50 is 6.64.
Regarding `Cc1ccc(-c2cc(-c3ccc(C)cc3)[n+](-c3ccccc3)c(-c3ccc(C)cc3)c2)cc1`, the pIC50 is 6.15.
As for `COC(=O)Nc1ccc(S(=O)(=O)N2CCCc3ccccc32)cc1`, the IC50 is > 80 µM (inactive).
Consider `Cc1ccc(NS(=O)(=O)c2ccc(-c3cnc(C4CC4)o3)cc2)c(C)c1`, for which the IC50 was > 80 µM (inactive).
`Cc1noc(C)c1CSc1nc2ccccc2c(=O)n1-c1ccccc1`: the IC50 was > 80 µM (inactive).
In the case of `COC(=O)c1nn(-c2ccc3c(c2)CCN3C(C)=O)cc1O`, the pIC50 is 5.29.
With `CC[C@@]1(O)C(=O)OCc2c1cc1n(c2=O)Cc2cc3c(CN(C)C)c(O)ccc3nc2-1`, the pIC50 was 6.02.
For `CC1=NNC(=O)/C1=C\c1cn(-c2ccccc2)nc1-c1ccc(Cl)cc1`, the pIC50 is 5.19.
For the compound `O=S(=O)(c1ccc2c(c1)OCCO2)N1CCN(c2ncnc3sccc23)CC1`, the pIC50 was 5.40.
As to `Cc1ccc2nc(SCC(=O)Nc3cc(C(F)(F)F)ccc3N3CCOCC3)[nH]c2c1`, the IC50 is > 80 µM (inactive).
Take `O=S1(=O)C=C(Sc2nc3cc(Cl)ccc3o2)c2ccccc21`: the negative-log IC50 (pIC50) is 6.68.
Turning to `O=C(Nc1ccc(S(=O)(=O)N2CCOCC2)cc1)c1ccc(CN2CCc3ccccc3C2)cc1`, the IC50 is > 80 µM (inactive).
`CNC[C@@H](CC1CCCCC1)NC[C@H](CC(C)C)NCCc1cccc(C(F)(F)F)c1`: the pIC50 was 5.31.
`Cc1ccc(C[n+]2c(-c3ccc(C)cc3)cc(-c3ccc(C)cc3)cc2-c2ccc(C)cc2)cc1`: the pIC50 was 6.54.
As to `C/C=C(\C)C(=O)N[C@@H](c1ccccc1)[C@@H](O)C(=O)O[C@H]1C[C@@]2(O)[C@@H](OC(=O)c3ccccc3)C3[C@](C)(C(=O)[C@H](O)C(=C1C)C2(C)C)[C@@H](O)C[C@H]1OC[C@@]31OC(C)=O` (some centres undefined), the IC50 was > 80 µM (inactive).
Consider `Cc1nn(-c2ccccc2Cl)c(Cl)c1/C=N/Nc1nc2ccccc2s1`, for which the pIC50 is above 6.80.
Turning to `O=C(c1ccccc1)c1nn(-c2ccc(Cl)cc2)c(=O)cc1C(F)(F)F`, the negative logarithm of the IC50 (pIC50) was 5.19.
For `Cc1ccc2[nH]c(-c3cccc(F)c3)cc(=O)c2c1`, the IC50 was > 80 µM (inactive).
Take `CCCN(CCC)C1=CC(=[N+]2CCCC2)CC(C)(C)C1`: the IC50 is 22.6 µM (inactive).
With `CCOc1ccc(S(=O)(=O)NCc2ccccn2)cc1NC(=O)c1ccccc1`, the IC50 is > 80 µM (inactive).
Regarding `CCOc1cccc(-c2nnc3n2N=C(c2cc(OC)ccc2OC)CS3)c1`, the IC50 was > 80 µM (inactive).
As for `COc1ccc(NC(=O)/C(Cl)=C(/Cl)S(=O)Cc2ccccc2)cn1` (centres undefined), the negative logarithm of the IC50 (pIC50) was 6.22.
As to `CCO[C@H]1OC(C(=O)NCc2nc3ccccc3[nH]2)=C[C@@H](C2CC2)[C@@H]1CCCO`, the IC50 was > 80 µM (inactive).
On the same count and under the same terms, for `O=C(c1ccc(Cl)cc1)c1cc([N+](=O)[O-])ccc1N1CCOCC1` the value was 76 µM (inactive).
Same read-out and setting: for `CCOc1ccc(N(CC(=O)Nc2ccccc2C)S(=O)(=O)c2c(C)noc2C)cc1` the value was > 80 µM (inactive); for `Cc1ccc(C)c(NS(=O)(=O)c2ccc(-c3cnc(C4CC4)o3)cc2)c1`, > 80 µM (inactive).
In the case of `CCC(O)C1CCN(C(=O)c2cc(COc3ccc4ncccc4c3)on2)CC1` (centres undefined), the pIC50 was 5.41.
On to `Clc1ccc(CSc2nncn2-c2ccc3c(c2)OCCO3)cc1`, for which the IC50 was 70 µM (inactive).
Take `Cc1ccccc1NC1=C/C(=N\S(=O)(=O)c2cccs2)c2ccccc2C1=O`: the pIC50 is 5.17.
In the case of `Cc1cnc(NC(=O)c2ccc3c(c2)OCCO3)s1`, the pIC50 is 5.97.
In the case of `Cc1noc(C)c1COc1ccc(CC(=O)NCc2ccccc2)cc1`, the IC50 is > 80 µM (inactive).
`CCC(=O)N1c2ccc(S(=O)(=O)N3CCN(c4ccc([N+](=O)[O-])cc4)CC3)cc2CC1C` (centres undefined): the IC50 is > 80 µM (inactive).
Regarding `O=c1oc2ccccc2cc1-c1cn(-c2ccccc2)c(=S)[nH]1`, the pIC50 is 6.26.
The same measure, in the same setting: the same measure for `Cc1nc2c(=O)n(C)c(=O)nc-2n(C)n1`: 5.47.
With `COc1ccccc1N1CCN(C(=O)c2cc(=O)c3cc(C)cc(C)c3o2)CC1`, the IC50 is > 80 µM (inactive).
For `c1ccc2c(c1)CCN(c1ncnc3c1[nH]c1ccccc13)C2`, the pIC50 was 4.77.
Regarding `COC(=O)c1ccc(C)c(NS(=O)(=O)c2ccc3c(c2)OCCO3)c1`, the IC50 was > 80 µM (inactive).
As to `CCOc1ccc(-c2[nH]ncc2-c2ccc(OC)c(OC)c2)c(O)c1`, the IC50 was > 80 µM (inactive).
For the compound `O=C(CSc1nnc(Cn2nnc3ccccc32)o1)N(Cc1ccc(F)cc1)c1ccccc1`, the pIC50 is 4.90.
With `Cc1ccc(O)c(NC(=O)c2cc(-c3ccccc3)on2)c1`, the IC50 is > 80 µM (inactive).
On to `O=C(NCCOc1ccccc1)c1cc([N+](=O)[O-])ccc1N1CCOCC1`, for which the IC50 is > 80 µM (inactive).
Turning to `COc1ccc(C)c(Cn2c(-c3nonc3N)nc3ccccc32)c1`, the IC50 was > 80 µM (inactive).
For the compound `c1cc2c(cc1C1=NNC(=NC3CC3)SC1)OCCO2`, the pIC50 is 6.52.
As for `COc1cc(-c2c(-c3cc(OC)c(OC)c(OC)c3)noc2C)ccc1F`, the IC50 was > 80 µM (inactive).
With `O=C(CNC(=O)c1ccco1)N=Nc1c(O)n(CCc2ccccc2)c2ccccc12`, the IC50 is > 80 µM (inactive).
For the compound `CCOCCCNC(=O)c1cc2c(=O)n3cccc(C)c3nc2n1C`, the IC50 was > 80 µM (inactive).
Turning to `COc1ccc(CC(=O)Nc2cccc(-c3nnc(-c4cccc(C)c4)o3)c2)cc1OC`, the negative-log IC50 (pIC50) was 5.08.
As to `COc1ccccc1CNS(=O)(=O)c1ccc(-c2cc(C)no2)cc1`, the IC50 was > 80 µM (inactive).
`C/C=C(\C)C(=O)N[C@@H](c1ccccc1)[C@@H](O)C(=O)O[C@H]1C[C@@]2(O)[C@@H](OC(=O)c3ccccc3)C3[C@](C)(C(=O)[C@H](OC(C)=O)C(=C1C)C2(C)C)[C@H](O)C[C@H]1OC[C@@]31OC(C)=O` (some centres undefined): the IC50 is > 80 µM (inactive).
On to `NS(=O)(=O)c1ccc(Sc2nc3ccccc3s2)c([N+](=O)[O-])c1`, for which the pIC50 was 5.87.
In the case of `Cc1ccc(N/C(N)=N/c2nc(CSc3nnc(C)s3)cc(=O)[nH]2)c(C)c1`, the IC50 was > 80 µM (inactive).
On to `C[C@]12CC[C@@H]3c4cc(O)c(O)cc4CC[C@H]3[C@@H]1CC[C@@H]2O`, for which the pIC50 is 4.84.
For the compound `COc1ccc(NC(=O)C(=O)NCC2CCCN2S(=O)(=O)c2cccs2)cc1` (centres undefined), the IC50 is > 80 µM (inactive).
On to `CCCN1C=CC(=C2C(=O)c3ccccc3C2=O)C=C1`, for which the pIC50 is above 6.80.
Take `C/C(=N\NC(=O)c1cc(C)nc2ccccc12)c1ccccn1`: the pIC50 was 5.91.
For `Cc1ccc(/C=N/NC(=O)C2COc3ccccc3O2)s1` (centres undefined), the IC50 was 45.6 µM (inactive).
As for `C=C(C)[C@@]12OC3(c4ccccc4)O[C@@H]1C1[C@@H]4O[C@]4(CO)[C@@H](O)[C@]4(O)C(=O)C(C)=C[C@H]4[C@@]1(O3)[C@H](C)[C@H]2OC(=O)/C=C/C=C/c1ccccc1` (some centres undefined), the IC50 is 38.9 µM (inactive).
Take `CCOc1ccc2c(c1)OC(c1ccc(OC)cc1)(C(F)(F)F)NC2=O` (centres undefined): the IC50 was > 80 µM (inactive).
